The target of series [1] is T1, S. aureus Fab I (Staphylococcus aureus, UniProt Q6GI75).
T1 construct: made in house; host or cells: E. coli
T1 sequence (Q6GI75 1-256): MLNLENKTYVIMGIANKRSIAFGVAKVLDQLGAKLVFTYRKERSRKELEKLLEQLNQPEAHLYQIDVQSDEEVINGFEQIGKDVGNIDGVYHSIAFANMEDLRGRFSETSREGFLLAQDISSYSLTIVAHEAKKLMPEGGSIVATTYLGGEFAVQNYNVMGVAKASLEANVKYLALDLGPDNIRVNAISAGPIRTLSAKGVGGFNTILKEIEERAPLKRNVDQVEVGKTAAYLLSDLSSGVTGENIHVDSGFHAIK
Put plainly: Inhibition of non his tagged (native) Fab I by saturated fatty acyl CoA's, NADH consumption at 340 nm. The class given is biochemical. Conditions: read-out: Mean IC50 (uM) (n = 2), 1 mM crotonoyl CoA and 1 mM NADH, 100 mM NaADA, pH 6.5. As to the method: (§1) Crotonoyl CoA was used as the substrate for Fab I and all activity measurements were based on a decrease in absorbance at 340 nm due to the utilization of NADH (FIG. 1). All assays were performed with 100 mM NaADA, pH 6.5 buffer. Acyl-CoA inhibition data was performed in the presence of 1 mM crotonoyl CoA and 1 mM NADH.

The target in series [2] is T2, E. coli Fab I (Escherichia coli, UniProt P0AEK4). The conditions noted are these: cited from earlier work.
For series [3], the target named is T1, S. aureus Fab I. As to the kind of experiment: Kinetic characterization of native S. aureus Fab I (substrates, mode of inhibition). The class given is biochemical. As to the method: as §1
(§2) However, studies performed at pH 6.0-7.0 with the native enzyme illustrated a sequential mechanistic pattern and kinetic parameters resulting from these studies indicated no overt change in either magnitude or kinetic mechanism. Thus the His10 tagged Fab I behaved distinctly from native Fab I enzyme.

Series [4] concerns the target T2, E. coli Fab I. Put plainly: Kinetic constants of E. coli Fab I for its substrates. The class given is biochemical. An excerpt: A diazaborine derivative may be used as a positive control, this should be readily available via a 2 step synthesis with publicly available starting materials using methods known in the art. Test compounds may be added to this assay to determine whether they agonize or antagonize enzymatic activity.

Substrate in series [5]: C/C=C/C(=O)SCCNC(=O)CCNC(=O)[C@H](O)C(C)(C)COP(=O)(O)OP(=O)(O)OC[C@H]1O[C@@H](n2cnc3c(N)ncnc32)[C@H](O)[C@@H]1OP(=O)(O)O
Put plainly: Kinetic characterization of native S. aureus Fab I (substrates, mode of inhibition). The class given is biochemical, Staphylococcus aureus. Conditions: other: S. aureus Fab I. As to the method:
as §1, §2

Like-named read-outs stand apart in the source and are kept apart here. Bounds are passed on as bounds.

T2 sequence (P0AEK4 whole entry): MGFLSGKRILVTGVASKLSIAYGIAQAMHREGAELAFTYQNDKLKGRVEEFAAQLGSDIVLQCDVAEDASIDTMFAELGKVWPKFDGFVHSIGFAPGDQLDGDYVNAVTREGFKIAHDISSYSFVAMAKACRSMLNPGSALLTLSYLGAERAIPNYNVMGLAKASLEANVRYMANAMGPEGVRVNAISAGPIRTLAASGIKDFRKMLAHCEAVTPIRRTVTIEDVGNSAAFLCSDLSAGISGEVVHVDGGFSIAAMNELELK

Regarding `CC(=O)SCCNC(=O)CCNC(=O)[C@H](O)C(C)(C)COP(=O)(O)OP(=O)(O)OC[C@H]1O[C@@H](n2cnc3c(N)ncnc32)[C@H](O)[C@@H]1OP(=O)(O)O` [Acetyl], the IC50 – broadly, the concentration at which inhibition is half-maximal – in series [1] was more than 1000 µM.

For the molecule `C/C=C/C(=O)SCCNC(=O)CCNC(=O)[C@H](O)C(C)(C)COP(=O)(O)OP(=O)(O)OC[C@H]1O[C@@H](n2cnc3c(N)ncnc32)[C@H](O)[C@@H]1OP(=O)(O)O` [CCA, crotonoyl CoA], the KCCA in series [2] (E. coli Fab I, Bergler et al 1994) was 2.7 mM; in series [3] (native S. aureus Fab I), 2.5 mM. Moreover, the Km – broadly, the concentration of substrate that gives half-maximal velocity – in series [2] (substrate of FAB I activity assay (Bergler et al 1994)) is 2700 µM.

As for `CCCCCCCCCCCCCC(=O)SCCNC(=O)CCNC(=O)[C@H](O)C(C)(C)COP(=O)(O)OP(=O)(O)OC[C@H]1O[C@@H](n2cnc3c(N)ncnc32)[C@H](O)[C@@H]1OP(=O)(O)O` [Myristoyl], the IC50 in series [1] worked out at 23.1 µM.

For `NC(=O)C1=CN([C@@H]2O[C@H](COP(=O)(O)OP(=O)(O)OC[C@H]3O[C@@H](n4cnc5c(N)ncnc54)[C@H](O)[C@@H]3O)[C@@H](O)[C@H]2O)C=CC1` [NADH], the “Kmapp for NADH relative to NADPH” value in series [3] (S. aureus Fab I) is “approximately 30 fold”. For the same molecule, the Km was approximately 410 µM in series [3] (S. aureus Fab I, read-out: Km for NADH) and 13 µM in series [4] (read-out: Km for NADH). The KNADH in series [3] (native S. aureus Fab I) was determined as 0.7 mM; in series [4] it was 0.01 mM. This molecule showed a KiNADH in series [3] (native S. aureus Fab I) of 0.2 mM.

For the molecule `CCCC(=O)SCCNC(=O)CCNC(=O)[C@H](O)C(C)(C)COP(=O)(O)OP(=O)(O)OC[C@H]1O[C@@H](n2cnc3c(N)ncnc32)[C@H](O)[C@@H]1OP(=O)(O)O` [n-Butyryl], in series [1], the IC50 is more than 1000 µM.

In the case of `CCCCCCCCCC(=O)SCCNC(=O)CCNC(=O)C(O)C(C)(C)COP(=O)(O)OP(=O)(O)OC[C@H]1O[C@@H](n2cnc3c(N)ncnc32)[C@H](O)[C@@H]1OP(=O)(O)O` (stereo partly drawn) [n-Decanoyl], the IC50 in series [1] worked out at 226 µM.

Consider `CCCCCC(=O)SCCNC(=O)CCNC(=O)C(O)C(C)(C)COP(=O)(O)OP(=O)(O)OC[C@H]1O[C@@H](n2cnc3c(N)ncnc32)[C@H](O)[C@@H]1OP(=O)(O)O` (stereo partly drawn) [n-Hexanoyl], for which the IC50 in series [1] was determined as 576 µM.

Turning to `CCCCCCCC(=O)SCCNC(=O)CCNC(=O)C(O)C(C)(C)COP(=O)(O)OP(=O)(O)OC[C@H]1O[C@@H](n2cnc3c(N)ncnc32)[C@H](O)[C@@H]1OP(=O)(O)O` (stereo partly drawn) [n-Octanoyl], the IC50 in series [1] turned out to be 248 µM.

Take “Apo-ACP: apo acyl carrier protein, inhibitor of Fab I”: in series [3] (S. aureus Fab I), the “Mode of inhibition versus NADH” value is given as “uncompetitive” and the “Mode of inhibition versus crotonoyl CoA” value is reported as “competitive”.

B1: S. aureus Fab I (Staphylococcus aureus subsp. aureus MRSA252) (protein)
chain: T1 sequence (Q6GI75 1-256)
notes: made in house; host or cells: E. coli
For B1, the Km in series [5] stood at 2500 µM.

These data come from patent publication US20050112713A1, “Methods of using Fab I and compounds modulating Fab I activity” (Affinium Pharmaceuticals, Inc., priority 1996, published 2005).
